Patent US9809532B2, “Uses of histone acetyltransferase activators” (THE TRUSTEES OF COLUMBIA UNIVERSITY IN THE CITY OF NEW YORK, priority 2011, dated 2017)

Key:
[1] = target: T1, Sirtuin 1 (Homo sapiens, UniProt Q96EB6); assay: Sirtuin 1 activity assay (fluorescence)
T1 sequence (Q96EB6 1-747): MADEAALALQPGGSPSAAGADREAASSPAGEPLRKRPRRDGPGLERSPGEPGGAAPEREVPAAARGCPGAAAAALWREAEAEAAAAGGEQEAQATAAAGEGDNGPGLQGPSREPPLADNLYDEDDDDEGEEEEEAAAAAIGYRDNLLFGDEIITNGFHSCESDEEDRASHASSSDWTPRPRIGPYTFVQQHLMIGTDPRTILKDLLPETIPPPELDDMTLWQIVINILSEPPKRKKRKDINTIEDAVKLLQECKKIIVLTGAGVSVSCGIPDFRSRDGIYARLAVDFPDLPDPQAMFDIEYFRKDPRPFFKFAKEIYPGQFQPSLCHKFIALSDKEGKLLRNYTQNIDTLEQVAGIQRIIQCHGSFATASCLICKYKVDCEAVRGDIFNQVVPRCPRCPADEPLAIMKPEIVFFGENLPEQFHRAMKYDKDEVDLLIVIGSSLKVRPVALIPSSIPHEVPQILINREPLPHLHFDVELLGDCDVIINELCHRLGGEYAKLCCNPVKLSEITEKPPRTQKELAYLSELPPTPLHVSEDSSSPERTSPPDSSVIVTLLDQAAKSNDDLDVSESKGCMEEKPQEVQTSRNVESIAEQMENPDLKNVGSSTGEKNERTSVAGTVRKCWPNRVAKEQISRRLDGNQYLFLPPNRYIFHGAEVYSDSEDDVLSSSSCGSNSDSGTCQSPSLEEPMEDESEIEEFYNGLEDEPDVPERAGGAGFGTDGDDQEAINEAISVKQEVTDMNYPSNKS

[2] = target: T2, Sirtuin 2 (Homo sapiens, UniProt Q8IXJ6); assay: Sirtuin 2 activity assay (fluorescence); conditions: Sirtuin 2
T2 sequence (Q8IXJ6 1-389): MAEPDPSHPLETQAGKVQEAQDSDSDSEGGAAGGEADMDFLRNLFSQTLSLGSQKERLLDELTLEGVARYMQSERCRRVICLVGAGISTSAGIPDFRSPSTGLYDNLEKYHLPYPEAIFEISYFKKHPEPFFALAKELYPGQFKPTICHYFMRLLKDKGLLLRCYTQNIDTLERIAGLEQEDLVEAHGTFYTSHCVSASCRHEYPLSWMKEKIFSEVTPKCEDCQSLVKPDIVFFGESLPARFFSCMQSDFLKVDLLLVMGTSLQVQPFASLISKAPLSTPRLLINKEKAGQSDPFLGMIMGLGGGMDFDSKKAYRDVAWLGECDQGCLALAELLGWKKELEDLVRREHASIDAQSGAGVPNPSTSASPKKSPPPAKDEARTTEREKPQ

[3] = precipitated as soon as put in H2O; cited from earlier work

| IC50 [1] [µM] | IC50 [2] [µM] | Structure (SMILES) | solubility in water [3] |
| --- | --- | --- | --- |
| > 10 | > 10 | O=C(CCCCCCC(=O)Nc1ccccc1)NO [SAHA, reference compound] |  |
|  |  | CCOc1ccccc1C(=O)Nc1ccc(Cl)c(C(F)(F)F)c1 [N-(4-chloro-3-trifluoromethyl-phenyl)-2-ethoxy-benzamide] | very poorly solubile in water |
